Measured values: US9783528B2, “Inhibitors of the enzyme UDP-glucose: N-acyl-sphingosine glucosyltransferase” (Concert Pharmaceuticals, Inc., priority 2013, dated 2017)
Like-named read-outs stand apart in the source and are kept apart here.

Columns and labels:
Human CYP2D6 Supersomes = molecular target: T1, Human CYP2D6 Supersomes (Homo sapiens, UniProt P10635); assay: Metabolic stability in Human CYP2D6 Supersomes; assay type: in vitro ADME; settings: Table 4a; for t1/2 (minutes) Experiment 2 / t1/2 (minutes) Experiment 1: 5 pmol/mL CYP2D6 supersomes, 0.25 μM test compound, 2 mM NADPH, 37° C.; for t1/2 (minutes) Experiment 1: parent remaining by LC-MS/MS; for t1/2 (minutes) Ave ± SD: average of Experiments 1 and 2
T1 construct: purchased Corning Gentest
T1 sequence (P10635 whole entry): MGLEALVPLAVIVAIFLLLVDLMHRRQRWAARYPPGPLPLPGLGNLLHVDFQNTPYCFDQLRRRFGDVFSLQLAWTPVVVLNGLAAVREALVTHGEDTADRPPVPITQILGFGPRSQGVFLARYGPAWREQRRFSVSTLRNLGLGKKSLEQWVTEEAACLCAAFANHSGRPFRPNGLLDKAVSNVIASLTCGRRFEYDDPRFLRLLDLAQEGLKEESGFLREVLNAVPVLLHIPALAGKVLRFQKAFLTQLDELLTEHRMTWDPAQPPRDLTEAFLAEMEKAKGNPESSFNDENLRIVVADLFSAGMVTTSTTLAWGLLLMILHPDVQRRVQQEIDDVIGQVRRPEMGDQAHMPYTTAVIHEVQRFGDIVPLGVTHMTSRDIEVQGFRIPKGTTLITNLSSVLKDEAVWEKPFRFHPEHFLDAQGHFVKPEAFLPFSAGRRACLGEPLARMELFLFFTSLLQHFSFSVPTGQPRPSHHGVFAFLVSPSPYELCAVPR
Procedure: (§1) Evaluation of Metabolic Stability in Human CYP2D6 Supersomes™
(§2) Materials: CYP2D6 Supersomes™ were obtained from Corning Gentest. β-nicotinamide adenine dinucleotide phosphate, reduced form (NADPH), magnesium chloride (MgCl2), and dimethyl sulfoxide (DMSO) were purchased from Sigma-Aldrich. D-Eliglustat compounds were supplied by Concert Pharmaceuticals.
(§3) Determination of Metabolic Stability: 10 mM stock solutions of test compounds were prepared in DMSO. […] The CYP2D6 supersomes were diluted to 5 pmol/mL in 0.1 M potassium phosphate buffer, pH 7.4, containing 3 mM MgCl2. The diluted supersomes were added to wells of a 96-well deep-well polypropylene plate in triplicate. […] Reactions were initiated by addition of pre-warmed NADPH solution. The final reaction volume was 0.5 mL and contained 5 pmol/mL CYP2D6 supersomes, 0.25 μM test compound, and 2 mM NADPH in 0.1 M potassium phosphate buffer, pH 7.4, and 3 mM MgCl2. The reaction mixtures were incubated at 37° C. and 50 μL aliquots were removed at 0, 5, 10, 20, and 30 minutes and added to shallow-well 96-well plates which contained 50 μL of ice-cold ACN with internal standard to stop the reactions. The plates were stored at 4° C. for 20 minutes after which 100 μL of water was added to the wells of the plate before centrifugation to pellet precipitated proteins. Supernatants were transferred to another 96-well plate and analyzed for amounts of parent remaining by LC-MS/MS using an Applied Bio-systems mass spectrometer.
(§4) Data analysis: The in vitro t1/2s for test compounds were calculated from the slopes of the linear regression of % parent remaining (ln) vs incubation time relationship.
(§5) k=−[slope of linear regression of % parent remaining (ln) vs incubation time]
(§6) Data analysis was performed using Microsoft Excel Software.

CYP2D6 = molecular target: T2, CYP2D6 (Homo sapiens, UniProt P10635); assay: Metabolic stability in Human CYP2D6 Supersomes; assay type: in vitro ADME; settings: human, recombinant human CYP2D6 Supersomes
T2 construct: purchased Corning Gentest
T2 sequence (P10635 whole entry): as above
Procedure: as §1, §2, §3, §4, §5, §6

% Δ of t1/2 = [(deuterated species) − (nondeuterated species)](100)/(nondeuterated species) (Human CYP2D6 Supersomes; versus Eliglustat (D0)) [%] | half-life at 0.25 μM (CYP2D6; pH 7.4, Table 4a, 5 pmol/mL CYP2D6 supersomes, 0.25 μM test compound, 2 mM NADPH, 37° C., parent remaining by LC-MS/MS, read-out: t1/2 (minutes) Experiment 1) [min] | half-life at 0.25 μM (CYP2D6; pH 7.4, Table 4a, 5 pmol/mL CYP2D6 supersomes, 0.25 μM test compound, 2 mM NADPH, 37° C., read-out: t1/2 (minutes) Experiment 2) [min] | half-life at 0.25 μM (CYP2D6; pH 7.4, Table 4a, average of Experiments 1 and 2, read-out: t1/2 (minutes) Ave ± SD) [min] | half-life at 0.25 μM (CYP2D6; pH 7.4, Table 4b, Human CYP2D6 Supersomes, read-out: t1/2 (minutes) Experiment 1) [min] | half-life at 0.25 μM (CYP2D6; pH 7.4, Table 4b, Human CYP2D6 Supersomes, read-out: t1/2 (minutes) Experiment 2) [min] | half-life at 0.25 μM (CYP2D6; pH 7.4, Table 4b, average of Experiments 1 and 2, read-out: t1/2 (minutes) Ave ± SD) [min] | Compound | t1/2 (minutes) Experiment 2 (Human CYP2D6 Supersomes) [min] | t1/2 (minutes) Experiment 1 (Human CYP2D6 Supersomes) [min] | t1/2 (minutes) Ave ± SD (Human CYP2D6 Supersomes) [min]
119 |  |  |  |  |  |  | N-((1R,2R)-1-(2,3-dihydrobenzo[b][1,4]dioxin-6-yl)-1-hydroxy-3-(pyrrolidin-2-yl-3,3-d2)octan-d15-amide hemi-L-tartaric acid salt [Compound 171] | 17.1 | 12.3 | 14.7 ± 3.4
 | 6.6 | 5.1 | 6.7 ± 1.5 | 9.7 | 6.3 | 8 ± 2.4 | CCCCCCCC(=O)N[C@H](CN1CCCC1)[C@H](O)c1ccc2c(c1)OCCO2 [Eliglustat (D0), N-[2-(2,3-dihydro-1,4-benzodioxin-6-yl)-2(R)-hydroxy-1(R)-(pyrrolidin-1-ylmethyl)ethyl]octanamide, reference compound] |  |  | 
 |  |  |  |  |  |  | N-((1R,2R)-1-(2,3-Dihydrobenzo[b][1,4]dioxin-6-yl-2,2,3,3-d4)-1-hydroxy-3-(pyrrolidin-1-yl-d8)propan-2-yl)octanamide hemi-L-tartaric acid salt [Compound 118] | 5.9 | 5.6 | 5.8 ± 0.2
